Results as given in ChEMBL document CHEMBL3734700, “Design, synthesis and biological activity of 4-[(benzimidazol-1-yl)methyl]biphenyl-2-sulphonamides as dual angiotensin II and endothelin A receptor antagonists” (Medchemcomm, 2015).
The source made the active and inactive calls. The calls are words filed in the database; no cut-off is given here.

How the values were obtained:
[1] = biological target: T1, Type-1 angiotensin II receptor (Homo sapiens, UniProt P30556); test: Displacement of 125I-labeled Sar1-Ile8-angiotensin II from human AT1 receptor incubated for 2 hrs by gamma counting analysis
T1 sequence (P30556 whole entry): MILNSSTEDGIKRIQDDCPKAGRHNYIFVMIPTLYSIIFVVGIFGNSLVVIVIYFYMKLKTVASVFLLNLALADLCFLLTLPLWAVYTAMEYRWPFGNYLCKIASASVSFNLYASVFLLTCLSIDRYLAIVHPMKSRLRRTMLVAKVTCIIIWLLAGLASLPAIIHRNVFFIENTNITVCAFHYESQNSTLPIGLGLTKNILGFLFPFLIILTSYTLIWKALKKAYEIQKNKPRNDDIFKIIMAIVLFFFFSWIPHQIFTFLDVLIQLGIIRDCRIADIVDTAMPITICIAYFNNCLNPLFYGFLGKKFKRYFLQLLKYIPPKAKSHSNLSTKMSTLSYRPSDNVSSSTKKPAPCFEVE

[2] = biological target: T2, Endothelin-1 receptor (Homo sapiens, UniProt P25101); test: Displacement of 125I-labeled endothelin 1 from human ETA receptor expressed in CHO-K1 cells incubated for 4 hrs by gamma counting analysis; type: cell-based
T2 sequence (P25101 whole entry): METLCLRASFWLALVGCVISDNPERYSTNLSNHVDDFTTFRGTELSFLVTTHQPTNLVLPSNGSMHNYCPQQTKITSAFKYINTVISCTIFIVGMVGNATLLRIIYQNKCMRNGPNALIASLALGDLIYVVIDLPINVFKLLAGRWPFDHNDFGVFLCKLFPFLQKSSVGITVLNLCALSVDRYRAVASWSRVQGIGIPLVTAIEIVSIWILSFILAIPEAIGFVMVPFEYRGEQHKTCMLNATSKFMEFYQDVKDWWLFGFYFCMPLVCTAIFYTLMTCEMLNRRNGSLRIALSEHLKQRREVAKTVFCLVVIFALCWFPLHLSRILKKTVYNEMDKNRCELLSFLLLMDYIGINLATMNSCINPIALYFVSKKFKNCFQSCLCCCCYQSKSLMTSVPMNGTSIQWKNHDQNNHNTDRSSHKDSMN

[3] = test system: Rattus norvegicus; test: Antihypertensive activity in spontaneously hypertensive rat assessed as reduction in blood pressure at 20 mg/kg, po by tail plethysmographic analysis; type: functional, organism-based

IC50 [1] [nM]	IC50 [2] [nM]	SMILES	Activity [3]
152	56000	CCCc1nc2c(C)cc(C(=O)NCCc3ccc(F)cc3)cc2n1Cc1ccc(-c2ccccc2S(=O)(=O)Nc2onc(C)c2C)cc1	–
95	5500	CCCc1nc2c(C)cc(C(=O)NCCN3CCCC3)cc2n1Cc1ccc(-c2ccccc2S(=O)(=O)Nc2onc(C)c2C)cc1	–
465	314	CCCCNC(=O)c1cc(C)c2nc(CCC)n(Cc3ccc(-c4ccccc4S(=O)(=O)Nc4onc(C)c4C)cc3)c2c1	–
37	3000	CCCc1nc2c(C)cc(C(=O)NCCc3cc(OC)ccc3OC)cc2n1Cc1ccc(-c2ccccc2S(=O)(=O)Nc2onc(C)c2C)cc1	–
47	1800	CCCc1nc2c(C)cc(C(=O)NCCN3CCN(C)CC3)cc2n1Cc1ccc(-c2ccccc2S(=O)(=O)Nc2onc(C)c2C)cc1	–
76	200000	CCCc1nc2c(C)cc(C(=O)NCCc3ccc(OC)cc3)cc2n1Cc1ccc(-c2ccccc2S(=O)(=O)Nc2onc(C)c2C)cc1	–
419	137	CCCc1nc2c(C)cc(C(=O)Nc3ccccc3OC)cc2n1Cc1ccc(-c2ccccc2S(=O)(=O)Nc2onc(C)c2C)cc1	–
94	5800	CCCc1nc2c(C)cc(C(=O)NCCN3CCCCC3)cc2n1Cc1ccc(-c2ccccc2S(=O)(=O)Nc2onc(C)c2C)cc1	–
81	388	CCCc1nc2c(C)cc(C(=O)NCc3ccc(OC)cc3)cc2n1Cc1ccc(-c2ccccc2S(=O)(=O)Nc2onc(C)c2C)cc1	–
373	35000	CCCNC(=O)c1cc(C)c2nc(CCC)n(Cc3ccc(-c4ccccc4S(=O)(=O)Nc4onc(C)c4C)cc3)c2c1	–
31	1400	CCCc1nc2c(C)cc(C(=O)NCCN3CCOCC3)cc2n1Cc1ccc(-c2ccccc2S(=O)(=O)Nc2onc(C)c2C)cc1	–
7	11	CCCCc1nn(-c2ccccc2Cl)c(=O)n1Cc1ccc(-c2ccccc2S(=O)(=O)Nc2onc(C)c2C)cc1	–
217	310	CCCc1nc2c(C)cc(C(=O)NCc3ccccc3OC)cc2n1Cc1ccc(-c2ccccc2S(=O)(=O)Nc2onc(C)c2C)cc1	–
16	15	CCCc1nc2c(n1Cc1ccc(-c3ccccc3S(=O)(=O)Nc3onc(C)c3C)c(C#N)c1)C(=O)CCCC2	–
56	28000	CCCc1nc2c(C)cc(C(=O)NCc3ccc(OC)c(OC)c3)cc2n1Cc1ccc(-c2ccccc2S(=O)(=O)Nc2onc(C)c2C)cc1	–
8	956	CCCc1nc2c(C)cc(C(=O)NCCc3ccccc3)cc2n1Cc1ccc(-c2ccccc2S(=O)(=O)Nc2onc(C)c2C)cc1	–
201	27000	CCCc1nc2c(C)cc(C(=O)Nc3ccccc3)cc2n1Cc1ccc(-c2ccccc2S(=O)(=O)Nc2onc(C)c2C)cc1	–
160	262	CCCc1nc2c(C)cc(C(=O)NCCc3ccccc3F)cc2n1Cc1ccc(-c2ccccc2S(=O)(=O)Nc2onc(C)c2C)cc1	–
28	10	CCCc1nc2c(C)cc(C(=O)NCc3ccccc3)cc2n1Cc1ccc(-c2ccccc2S(=O)(=O)Nc2onc(C)c2C)cc1	Active
50	898	CCCc1nc2c(C)cc(C(=O)NCc3cccc(OC)c3)cc2n1Cc1ccc(-c2ccccc2S(=O)(=O)Nc2onc(C)c2C)cc1	–
341	277	CCCc1nc2c(C)cc(C(=O)NC(C)C)cc2n1Cc1ccc(-c2ccccc2S(=O)(=O)Nc2onc(C)c2C)cc1	–
42	24000	CCCc1nc2c(C)cc(C(=O)NCCc3cccc(OC)c3)cc2n1Cc1ccc(-c2ccccc2S(=O)(=O)Nc2onc(C)c2C)cc1	–
–	–	CCCCC1=NC2(CCCC2)C(=O)N1Cc1ccc(-c2ccccc2-c2nnn[nH]2)cc1	Active
385	140000	CCCc1nc2c(C)cc(C(=O)NC(C)(C)C)cc2n1Cc1ccc(-c2ccccc2S(=O)(=O)Nc2onc(C)c2C)cc1	–
13	24	CCCc1cc(Cn2c(CC)nc3c(C)cc(C)nc32)ccc1OC(C(=O)NS(=O)(=O)c1ccc(C(C)C)cc1)c1ccc2c(c1)OCO2 (configuration not stated)	–
92	55000	CCCc1nc2c(C)cc(C(=O)NCCc3ccc(OC)c(OC)c3)cc2n1Cc1ccc(-c2ccccc2S(=O)(=O)Nc2onc(C)c2C)cc1	–
